The values that follow come from US8765729B2, “Cancer therapy” (Aeolus Sciences, Inc., priority 2001, dated 2014).

Test [1] concerns tumor angiogenesis, R230 mammary adenocarcinoma cells in Z-chambers. Description: Tumor angiogenesis in Z-chambers (microvessel density). In kind it is in vivo, Fisher-344 rats. Particulars: 6 mg/kg i.p. 24 hours before implantation. The procedure:
FIG. 5. Antiangiogenesis: Animals were pretreated with different SOD mimetics (6 mg/kg i.p.) 24 hours before implantation of 2.5 mil./ml R230 mammary adenocarcinoma cells in Z-chambers.
Immunohistochemistry was carried out using procedures described by Hsu et al (Hsu et al., j. Histochem. Cytochem. 29:577-580 (1981)). Briefly, paraffin embedded tissues were sectioned (5 microns) and antigen retrieval was performed using citrate buffer from Biogenex (San Ramon, Calif.). Tissues were treated with primary antibody against tissue transglutaminase (TG100, 1:10, endothelial cell marker, non-reactive to Factor XIIIa) (Neomarkers, Calif.) for 1 hour at 37° C. Secondary antibody (Jackson ImmunoResearch. PA) and tertiary. (Vector, Calif.) antibodies were incubated for 25 minutes at 37° C. and the location of the reaction was visualized with 3,3-diaminobenzidine tetrahydrochloride Sigma (St. Louis, Mo.). Slides were counterstained with hematoxylin and mounted with coverslips. Controls for the immunohistochemistry were treated with mouse IgG instead of primary antibody and were negative in any reactivity. […] Microvessel density was calculated as described by Weidner et al (Weidner et al, J. New Engl. J. Med. 324:1-8 (1991)). Briefly, six hot spots or areas with highest vessels marked by the vessel marker at a high power field (400×) per sample section were selected and number of blood vessel counted. […]

In another test the test system is B16 melanoma tumor. Description: B16 melanoma tumor growth in mice treated with SOD mimetic. In kind it is in vivo. Particulars: 6 mg/kg i.p. The procedure:
FIGS. 2A-2C. (FIG. 2A) B16 melanoma tumor treated with SOD mimetic. The mimetic was 10113 at a dose of 6 mg/kg given intraperitoneally qd for 5 days. (FIG. 2B) Mammary adenocarcinoma treated with SOD mimetic. 10113 was given intraperitoneally at a dose of 6 mg/kg/day for 16 days. Radiation therapy (RT), 21 Gy, was given on day 8 or 9. (FIG. 2C) Fischer 344 rats with subcutaneously implanted R3230 AC mammary adenocarcinomas received Radiation treatment (21 Gy Day 1), AEOL 10113 (6 mg/kg/day IP Day 1 to 20), the combination Radiation and AEOL 10113 (as above), or Control treatment.
The effect of the MnTE-2-PyP (manganese(III) tetrakis(N-ethylpyridinium-2-yl)porphyrin) on tumor growth and radiation response in two tumor models has been tested. […] The effect of the SOD mimetic. MnTE-2-PyP, on tumor growth and radiation response has been tested in a rat model.

In test [2] the test system is R3230 mammary adenocarcinoma cells in Z-chambers. The experiment in a line: Tumor development in Z-chambers. In kind it is in vivo, Fisher-344 rats. Particulars: 6 mg/kg i.p. 24 hours before implantation of 2.5 mil./ml cells. The procedure:
FIG. 4. Animals were pretreated with different SOD mimetics (6 mg/kg i.p.) 24 hours before implantation of 2.5 mil./ml R3230 mammary adenocarcinoma cells in Z-chambers.
These chambers are constructed from customized plexi-glass rings with internal diameter of 10 mm and have a pore on the side. The two open surfaces are covered by nylon mesh (pore size 180 microns, Millipore, Mass.) and glued to the rings. Fibrinogen (Human fibrinogen, plasminogen depleted, CalBiochem) is prepared in DMEM, Gibco BRL) and a concentration of 4-5 mg/ml is utilized for the studies. Although the Fischer rats used in the study are immune competent, this purified batch of fibrinogen has been recognized to be very well conserved across species lines. It has already been shown that early angiogenic response to human fibrinogen is very similar to rat fibrinogen in fibrin gel chambers. The two different types of fibrinogen have also been tested in the Z-Chambers and no difference was found in angiogenic and healing response. Human fibrinogen was used.
The Fibrin Z-Chambers have fibrinogen solution poured inside the chamber through the pore and followed by 2 units of thrombin. […]
The Z-Chambers were harvested on day 1 or 12 post surgery. […] The depth of either the tumor tissue (tumor growth) or granulation tissue (wound healing) was measured with calipers on the 4×6 inch print. […]

SMILES strings stand for the structures.

Regarding `CC[n+]1ccccc1-c1c2nc(c(-c3cccc[n+]3CC)c3ccc([n-]3)c(-c3cccc[n+]3CC)c3nc(c(-c4cccc[n+]4CC)c4ccc1[n-]4)C=C3)C=C2.[Mn+3]` [Compound 10113, manganese(III)tetrakis(N-ethylpyridinium-2-yl)porphyrin], the tumor angiogenesis entry in test [1] is “Significant inhibition of tumor angiogenesis”. Moreover, the “inhibition of tumor growth” value with B16 melanoma tumor (mice with B16 melanoma) is listed as “significant inhibition of tumor growth”. For the same molecule, in the test on B16 melanoma tumor (control group 2 days), the Tumor doubling time is reported as 4 days. For the same molecule, in test [2], the tumor development entry was “Significant (p<0.01) inhibition of tumor development”.
